{
  "source": "patent US9157062B2",
  "about": "“Compositions and methods for promoting the generation of PDX1+ pancreatic cells” (President and Fellows of Harvard College, priority 2008, dated 2015)",
  "key": {"HUES8-derived population": {"test_system": "HUES8-derived population", "assay": "Illumina microarray of markers expressed in non-pancreatic tissues", "assay_type": "cell-based, human", "conditions": "300 nM ILV, 4 days", "procedure": "cRNA samples were prepared with an Illumina TotalPrep RNA Amplification Kit (Ambion). Data was acquired with an Illumina beadstation 500 (Illumina) and analyzed with beadstudio (Illumina).\nTo further characterize the cells induced by ILV, beyond Pdx1^+ expression, multiple pancreatic lineage markers were examined by immunocytochemistry and qRT-PCR. More than 96% of the Pdx1^+ cells following ILV treatment show significant expression of other pancreatic progenitor markers, including FOXA2 and HNF6 (FIG. 4a). After ILV treatment, Pdx1, HNF6, Ptfla, Sox9, FOXA2 mRNAs level increase (FIG. 4b)."}, "[1]": {"test_system": "mouse ESC-derived definitive endoderm with Pdx1-GFP reporter", "assay": "Pancreatic differentiation of mESC-derived definitive endoderm (Pdx1-GFP reporter)", "assay_type": "cell-based", "conditions": "300 nM ILV", "procedure": "Mouse embryonic stem cells (mESCs) with Pdx1-GFP reporter are routinely cultured on irradiated CF-1 MEF feeder cells in KnockOut DMEM (Invitrogen) supplemented with 15% FBS (Hyclone), 2 mM L-Glu, 1.1 mM 2-mercaptoethanol, 1 mM nonessential amino acids, 1×PS and 10^3 unit LIF (Chemicon). Cells are passaged at the ratio of 1:12 every 3 days by using 0.25% trypsin-EDTA (Invitrogen).\nTo generate a definitive endoderm population, mESCs were plated on gelatin-coated surface at 2500 cell/cm^2 after depletion of MEF feeder cells. Then, the cells were treated with 1000 ng/ml recombinant mouse Nodal (R&D systems) in A-RPMI supplemented with 1×L-Glu, 1×L-PS and 0.2% FBS for 5 days. […]\nTotal RNAs were extracted with the RNeasy Mini Kit (Qiagen) and reverse-transcribed using SuperScript III RT-PCR system (Invitrogen) according to the manufacturer's protocol. One microliter of cDNA sample was PCR amplified with QuantiFast SYBR Green PCR Kit (Qiagen) and analyzed with DNA engine Opticon2 (MJ Research).\nTo determine whether ILV functions on other species, the effect of ILV on a population of mouse ESCs (mESCs) that have been induced to form definitive endoderm was examined. […] The increase of Pdx1 expression can be further confirmed with immunostaining (FIG. 3b) and quantitative RT-PCR (qRT-PCR, FIG. 3c). […]"}, "[2]": {"test_system": "HUES8-derived treated cells grafted under the kidney capsule", "assay": "Kidney capsule implantation of treated cells in CD1-nude mice", "assay_type": "in vivo, mouse", "procedure": "After 4 days treatment with 300 nM ILV or 300 nM ILV+ 50 ng/ml FGF10, the cells were washed with DPBS for 3 times and treated with 1 mg/ml dispase for 5 min at 37° C. Then, the cells were lifted with the help of cell scraper, collected by centrifugation and resuspended in 50 μl DMEM supplemented 1×B27. About 40 μl (˜2×10^6 cells) of cell clumps were implanted into the left kidney of xylazine anesthetized CD1-nude mice. Two mice were prepared for each sample. Twelve weeks later, the left kidneys were dissected and fixed in 4% paraformaldehyde for 4 hours at 4° C. and processed by standard techniques to generate 15 micrometer cryosections for antibody staining. The antibodies were used as the same condition as immunocytochemistry. Fluorescent images were acquired on an inverted Zeiss LSM 510 confocal microscope.\nTo further assess the developmental competence of chemically-treated cells, the cells were transplanted under the kidney capsule of nude mice, an assay used by others to observe pancreatic differentiation in vivo (Korsgren et al., 1991; Movassat et al., 2002). […] Additionally, all insulin^+ cells express c-peptide. In contrast, no insulin^+ cells were detected in the mice injected with DMSO-treated population. […]"}},
  "data": [
    {"substance": "(−)-Indolactam V [ILV]", "values": [
      {"measurement": "markers expressed in non-pancreatic tissues or organs (Sox7, Cdx2, Ces2, FABP2, AFP, albumin, BARX1, Troponin T, Sox2)", "setting": "HUES8-derived population", "result": "either decrease or do not significantly change"},
      {"measurement": "percentage of GFP+ cells", "setting": "[1]; 6 days", "result": "50.0±6.1", "unit": "%"},
      {"measurement": "expression of mRNAs of pancreatic markers (Pdx1, Cdcp1, Ptfla, HNF6, FOXA2, Nkx2.2)", "setting": "[1]; qRT-PCR", "result": "increase"},
      {"measurement": "teratoma", "setting": "[2]; after twelve weeks", "result": "no evidence for teratoma was detected"},
      {"measurement": "endocrine and exocrine markers in grafts", "setting": "[2]; cells treated 4 days, implanted in left kidney of CD1-nude mice, twelve weeks", "result": "contained cell clusters that expressed endocrine markers, including insulin and c-peptide, and an exocrine marker, amylase"}
    ]}
  ]
}
